Reference: patent US20080009418A1, “Selective Inhibitors” (Alchemia LTD., priority 2004, published 2008)

Key:
Conditions in all cases: compound at 10 μM
[1] = target: T1, Human μ-opioid (MOP) (Homo sapiens, UniProt P35372); assay: Radioligand binding, human μ-opioid (MOP) membranes, FlashPlate, [3H]-Naloxone
T1 construct: purchased Perkin Elmer Biosignal
Procedure, shortened: (§1)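 Cloned human receptor membranes were coated onto FlashPlate wells and incubated with radioligand and compound (added from a 0.5 mM DMSO daughter plate) for 1 hour at room temperature in the dark. Scintillation counting gave percent inhibition, with DMSO defining total and reference ligand defining non-specific binding.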

[2] = target: T2, Mouse urotensin (mUR2) (Mus musculus, UniProt Q8VIH9); assay: Radioligand binding, mouse urotensin mUR2 membranes, FlashPlate, [125I]-Urotensin II
T2 construct: purchased Perkin Elmer Biosignal
T2 sequence (Q8VIH9 1-385): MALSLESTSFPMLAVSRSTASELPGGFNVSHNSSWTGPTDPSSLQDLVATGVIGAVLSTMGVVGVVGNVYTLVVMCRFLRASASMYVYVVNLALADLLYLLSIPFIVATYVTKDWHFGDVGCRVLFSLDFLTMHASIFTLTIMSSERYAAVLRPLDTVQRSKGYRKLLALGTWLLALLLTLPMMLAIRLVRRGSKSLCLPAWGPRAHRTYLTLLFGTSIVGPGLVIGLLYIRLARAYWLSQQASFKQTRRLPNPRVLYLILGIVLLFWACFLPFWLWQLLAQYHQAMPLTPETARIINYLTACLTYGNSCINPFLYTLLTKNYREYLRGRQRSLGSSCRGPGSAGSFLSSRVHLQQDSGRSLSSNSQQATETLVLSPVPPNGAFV
Procedure, shortened: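 Cloned mouse urotensin (mUR2) receptor membranes from Perkin Elmer Biosignal were immobilized in FlashPlate microplates using a proprietary coating. Each well got 19.5 μl buffer, then 0.5 μl of DMSO, reference ligand, or compound. Adding 5 μl of [125I]-Urotensin II, diluted to 5× final concentration in binding buffer, started binding. Plates were sealed with TopSeal-A and incubated 1 hour at room temperature in the dark. Wells were counted for 30 seconds each on a TopCount after a 60-second delay, and percentage inhibition was calculated.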

[3] = target: T3, Human neuropeptide Y (NPY-Y1) (Homo sapiens, UniProt P25929); assay: Radioligand binding, human neuropeptide Y NPY-Y1 membranes, FlashPlate, [125I]-PYY
T3 construct: purchased Perkin Elmer Biosignal
T3 sequence (P25929 1-384): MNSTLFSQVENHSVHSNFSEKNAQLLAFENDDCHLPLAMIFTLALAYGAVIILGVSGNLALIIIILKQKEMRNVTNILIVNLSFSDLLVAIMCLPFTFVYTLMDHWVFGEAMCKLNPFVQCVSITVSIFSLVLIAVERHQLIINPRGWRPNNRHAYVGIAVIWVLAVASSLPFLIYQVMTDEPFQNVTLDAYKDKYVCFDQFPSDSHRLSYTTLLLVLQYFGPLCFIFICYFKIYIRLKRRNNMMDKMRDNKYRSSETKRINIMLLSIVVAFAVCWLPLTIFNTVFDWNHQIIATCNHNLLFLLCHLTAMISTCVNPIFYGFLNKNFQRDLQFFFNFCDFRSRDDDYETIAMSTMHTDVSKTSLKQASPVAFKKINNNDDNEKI
Procedure, shortened: as §1

[4] = target: T4, Human opioid (ORL1) (Homo sapiens, UniProt P41146); assay: Radioligand binding, human opioid ORL1 membranes, FlashPlate, [125I]-Nociceptin
T4 construct: purchased Perkin Elmer Biosignal
Procedure, shortened: as §1

[5] = target: T5, Human Melanocortin (MC4) (Homo sapiens, UniProt P32245); assay: Radioligand binding, human melanocortin MC4 membranes, FlashPlate, [125I]-NDP-αMSH
T5 construct: purchased Perkin Elmer Biosignal
Procedure, shortened: as §1

[6] = target: T6, Human melanin-concentrating hormone (MCH1) (Homo sapiens, UniProt Q99705); assay: Radioligand binding, human melanin-concentrating hormone MCH1 membranes, FlashPlate, [125I]-S36057
T6 construct: purchased Perkin Elmer Biosignal
Procedure, shortened: as §1

[7] = target: T7, Human melanocortin (MC5) (Homo sapiens, UniProt P33032); assay: Radioligand binding, human melanocortin MC5 membranes, FlashPlate, [125I]-NDP-αMSH
T7 construct: purchased Perkin Elmer Biosignal
Procedure, shortened: as §1

[8] = target: T8, Human δ-opioid (DOP) (Homo sapiens, UniProt P41143); assay: Radioligand binding, human δ-opioid (DOP) membranes, FlashPlate, [3H]-Bremazocine
T8 construct: purchased Perkin Elmer Biosignal
Procedure, shortened: as §1

[9] = target: T9, Human neurokinin (NK1) (Homo sapiens, UniProt P25103); assay: Radioligand binding, human neurokinin NK1 membranes, filtration, [125I]-Substance P
T9 construct: purchased Perkin Elmer Biosignal
Procedure, shortened: (§2)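 Percent inhibition of radioligand binding measured on recombinant human membranes: NK1 with [125I]-Substance P, KOP with [3H]-Diprenorphine. Incubation 1 h at room temperature, then harvest onto 0.3% PEI-soaked filters, cold Tris-HCl pH 7.4 washes and scintillation counting; non-specific binding from reference ligand wells.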

[10] = target: T10, Human κ-Opioid (KOP) (Homo sapiens, UniProt P41145); assay: Radioligand binding, human κ-opioid (KOP) membranes, filtration, [3H]-Diprenorphine
T10 construct: purchased Perkin Elmer Biosignal
Procedure, shortened: as §2

[11] = target: T11, Human Melanocortin (MC3) (Homo sapiens, UniProt P41968); assay: Radioligand binding, human melanocortin MC3 membranes, FlashPlate, [125I]-NDP-αMSH
T11 construct: purchased Perkin Elmer Biosignal
Procedure, shortened: as §1

T5 sequence (P32245 whole entry): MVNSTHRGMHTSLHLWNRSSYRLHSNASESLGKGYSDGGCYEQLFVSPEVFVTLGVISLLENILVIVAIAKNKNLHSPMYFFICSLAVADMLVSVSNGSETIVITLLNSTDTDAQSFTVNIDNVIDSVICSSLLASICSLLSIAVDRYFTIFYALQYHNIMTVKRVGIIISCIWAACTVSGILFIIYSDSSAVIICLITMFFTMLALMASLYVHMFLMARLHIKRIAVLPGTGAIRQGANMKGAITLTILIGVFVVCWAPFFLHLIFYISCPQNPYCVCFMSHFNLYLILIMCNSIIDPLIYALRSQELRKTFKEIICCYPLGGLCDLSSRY
T6 sequence (Q99705 whole entry): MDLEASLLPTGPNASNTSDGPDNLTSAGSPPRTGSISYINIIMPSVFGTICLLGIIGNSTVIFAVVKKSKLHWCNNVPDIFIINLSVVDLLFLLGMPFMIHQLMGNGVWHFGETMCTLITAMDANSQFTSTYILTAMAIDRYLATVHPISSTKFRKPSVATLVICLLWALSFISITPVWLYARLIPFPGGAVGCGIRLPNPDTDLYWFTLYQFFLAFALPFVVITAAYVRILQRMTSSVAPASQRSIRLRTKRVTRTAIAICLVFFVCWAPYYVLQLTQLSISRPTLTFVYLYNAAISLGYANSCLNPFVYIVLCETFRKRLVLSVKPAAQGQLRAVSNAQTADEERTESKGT
T11 sequence (P41968 whole entry): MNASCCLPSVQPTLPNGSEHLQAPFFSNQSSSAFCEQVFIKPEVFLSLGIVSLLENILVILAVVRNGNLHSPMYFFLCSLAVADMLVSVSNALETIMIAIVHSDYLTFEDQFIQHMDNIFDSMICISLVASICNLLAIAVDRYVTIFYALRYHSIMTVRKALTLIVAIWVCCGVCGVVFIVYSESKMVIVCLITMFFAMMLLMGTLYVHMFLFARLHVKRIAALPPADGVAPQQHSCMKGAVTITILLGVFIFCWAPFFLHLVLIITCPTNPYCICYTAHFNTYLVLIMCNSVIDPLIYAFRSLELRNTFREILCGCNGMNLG
T7 sequence (P33032 whole entry): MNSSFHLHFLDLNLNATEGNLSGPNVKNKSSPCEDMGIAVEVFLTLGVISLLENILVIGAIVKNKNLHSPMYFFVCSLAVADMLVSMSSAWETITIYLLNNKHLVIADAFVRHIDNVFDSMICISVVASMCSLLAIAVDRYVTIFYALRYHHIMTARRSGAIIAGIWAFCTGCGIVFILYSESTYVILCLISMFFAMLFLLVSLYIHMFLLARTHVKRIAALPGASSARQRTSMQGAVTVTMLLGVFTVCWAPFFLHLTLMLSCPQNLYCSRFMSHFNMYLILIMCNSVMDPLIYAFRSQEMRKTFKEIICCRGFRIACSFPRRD
T9 sequence (P25103 whole entry): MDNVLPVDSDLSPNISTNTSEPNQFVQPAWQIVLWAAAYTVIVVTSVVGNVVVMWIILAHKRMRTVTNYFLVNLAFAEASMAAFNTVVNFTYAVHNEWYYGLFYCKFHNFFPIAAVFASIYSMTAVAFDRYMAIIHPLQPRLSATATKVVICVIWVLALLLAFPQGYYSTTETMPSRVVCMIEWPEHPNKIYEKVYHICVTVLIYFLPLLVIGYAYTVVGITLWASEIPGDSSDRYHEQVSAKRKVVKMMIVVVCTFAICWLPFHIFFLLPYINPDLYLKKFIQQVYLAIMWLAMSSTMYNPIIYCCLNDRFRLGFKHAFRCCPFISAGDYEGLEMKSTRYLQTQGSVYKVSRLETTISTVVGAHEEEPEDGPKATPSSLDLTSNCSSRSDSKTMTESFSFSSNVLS
T4 sequence (P41146 whole entry): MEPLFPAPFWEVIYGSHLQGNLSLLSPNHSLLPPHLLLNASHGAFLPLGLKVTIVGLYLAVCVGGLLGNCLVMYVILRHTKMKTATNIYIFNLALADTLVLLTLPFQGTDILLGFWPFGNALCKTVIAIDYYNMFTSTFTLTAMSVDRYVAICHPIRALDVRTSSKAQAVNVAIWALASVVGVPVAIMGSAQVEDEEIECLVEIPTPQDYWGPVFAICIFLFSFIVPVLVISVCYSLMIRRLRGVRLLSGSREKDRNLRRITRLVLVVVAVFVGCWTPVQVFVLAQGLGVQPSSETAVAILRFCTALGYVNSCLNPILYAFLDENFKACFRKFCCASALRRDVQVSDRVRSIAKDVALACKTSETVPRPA
T1 sequence (P35372 whole entry): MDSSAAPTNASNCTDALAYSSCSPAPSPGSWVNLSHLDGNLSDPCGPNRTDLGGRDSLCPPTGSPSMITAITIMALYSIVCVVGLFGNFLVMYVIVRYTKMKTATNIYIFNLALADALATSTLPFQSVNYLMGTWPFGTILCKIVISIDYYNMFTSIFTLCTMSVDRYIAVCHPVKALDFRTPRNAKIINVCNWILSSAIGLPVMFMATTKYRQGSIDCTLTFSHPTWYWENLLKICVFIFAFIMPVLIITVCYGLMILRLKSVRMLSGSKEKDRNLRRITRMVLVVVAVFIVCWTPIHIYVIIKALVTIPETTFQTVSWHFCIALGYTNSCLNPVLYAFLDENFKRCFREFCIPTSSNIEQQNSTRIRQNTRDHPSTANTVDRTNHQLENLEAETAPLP
T10 sequence (P41145 whole entry): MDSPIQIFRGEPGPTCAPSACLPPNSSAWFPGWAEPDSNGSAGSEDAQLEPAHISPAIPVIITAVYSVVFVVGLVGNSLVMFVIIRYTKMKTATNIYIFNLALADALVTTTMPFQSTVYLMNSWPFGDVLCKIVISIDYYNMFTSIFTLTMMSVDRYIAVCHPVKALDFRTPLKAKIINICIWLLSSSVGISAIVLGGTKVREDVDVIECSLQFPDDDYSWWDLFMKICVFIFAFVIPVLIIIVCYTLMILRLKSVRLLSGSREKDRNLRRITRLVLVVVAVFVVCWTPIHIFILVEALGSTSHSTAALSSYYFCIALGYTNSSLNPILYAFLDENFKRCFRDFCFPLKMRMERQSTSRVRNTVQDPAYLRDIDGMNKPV
T8 sequence (P41143 whole entry): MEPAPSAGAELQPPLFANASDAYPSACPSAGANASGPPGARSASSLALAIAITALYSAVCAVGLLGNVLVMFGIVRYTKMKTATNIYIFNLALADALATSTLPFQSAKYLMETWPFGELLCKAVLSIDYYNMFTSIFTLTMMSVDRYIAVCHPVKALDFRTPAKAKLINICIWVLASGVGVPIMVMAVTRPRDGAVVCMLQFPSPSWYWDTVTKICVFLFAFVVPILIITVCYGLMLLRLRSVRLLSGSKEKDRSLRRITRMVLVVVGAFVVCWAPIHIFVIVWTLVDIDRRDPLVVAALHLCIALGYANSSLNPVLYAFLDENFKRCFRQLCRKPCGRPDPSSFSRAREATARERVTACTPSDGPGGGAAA

CO[C@H]1[C@H](O)[C@@H](COCc2ccc(Cl)cc2)OC(OCc2ccccc2)[C@@H]1NC(=O)CCNC(=N)N (stereo partly shown) [compound 91]
A7 radioligand binding inhibition ([1]; human μ-opioid (MOP) membranes): − (“−” indicates less than 50% inhibition at 10 μM)
A11 radioligand binding inhibition ([2]; mouse urotensin mUR2 membranes): − (“−” indicates less than 50% inhibition at 10 μM)
A9 radioligand binding inhibition ([3]; human NPY-Y1 membranes): − (“−” indicates less than 50% inhibition at 10 μM)
A10 radioligand binding inhibition ([4]; human ORL1 membranes): − (“−” indicates less than 50% inhibition at 10 μM)
A4 radioligand binding inhibition ([5]; human melanocortin MC4 membranes): − (“−” indicates less than 50% inhibition at 10 μM)
A6 radioligand binding inhibition ([6]; human MCH1 membranes): − (“−” indicates less than 50% inhibition at 10 μM)
A5 radioligand binding inhibition ([7]; human melanocortin MC5 membranes): − (“−” indicates less than 50% inhibition at 10 μM)
A1 radioligand binding inhibition ([8]; human δ-opioid (DOP) membranes): − (“−” indicates less than 50% inhibition at 10 μM)
A8 radioligand binding inhibition ([9]; human neurokinin NK1 membranes): + (“+” indicates greater than 50% inhibition at 10 μM)
A2 radioligand binding inhibition ([10]; human κ-opioid (KOP) membranes): − (“−” indicates less than 50% inhibition at 10 μM)
A3 radioligand binding inhibition ([11]; human melanocortin MC3 membranes): − (“−” indicates less than 50% inhibition at 10 μM)

N=C(N)NCC(=O)N[C@H]1C(OCc2ccc(Cl)cc2)O[C@H](COCc2ccccc2)[C@@H](O)[C@@H]1OCc1ccc(-c2ccccc2)cc1 (stereo partly shown) [compound 519]
A7: inhibition of radioligand binding, human μ-opioid (MOP) ([1]; [3H]-Naloxone): − (“−” indicates less than 50% inhibition at 10 μM)
A11: inhibition of radioligand binding, mouse urotensin (mUR2) ([2]; [125I]-Urotensin II): − (“−” indicates less than 50% inhibition at 10 μM)
A9: inhibition of radioligand binding, human neuropeptide Y (NPY-Y1) ([3]; [125I]-PYY): − (“−” indicates less than 50% inhibition at 10 μM)
A10: inhibition of radioligand binding, human opioid (ORL1) ([4]; [125I]-Nociceptin): − (“−” indicates less than 50% inhibition at 10 μM)
A4: inhibition of radioligand binding, human melanocortin (MC4) ([5]; [125I]-NDP-αMSH, 10 µM): + (“+” indicates greater than 50% inhibition at 10 μM)
A6: inhibition of radioligand binding, human melanin-concentrating hormone (MCH1) ([6]; [125I]-S36057, 10 µM): + (“+” indicates greater than 50% inhibition at 10 μM)
A5: inhibition of radioligand binding, human melanocortin (MC5) ([7]; [125I]-NDP-αMSH, 10 µM): + (“+” indicates greater than 50% inhibition at 10 μM)
A1: inhibition of radioligand binding, human δ-opioid (DOP) ([8]; [3H]-Bremazocine): − (“−” indicates less than 50% inhibition at 10 μM)
A8: inhibition of radioligand binding, human neurokinin (NK1) ([9]; [125I]-Substance P): + (“+” indicates greater than 50% inhibition at 10 μM)
A2: inhibition of radioligand binding, human κ-opioid (KOP) ([10]; [3H]-Diprenorphine): − (“−” indicates less than 50% inhibition at 10 μM)
A3: inhibition of radioligand binding, human melanocortin (MC3) ([11]; [125I]-NDP-αMSH, 10 µM): + (“+” indicates greater than 50% inhibition at 10 μM)
